Reference: patent US5985926A, “Method for inhibiting intracellular viral replication” (Cell Therapeutics, Inc., priority 1997, dated 1999)
Like-named read-outs stand apart in the source and are kept apart here.

Key:
[1] = tested on: HIV-LTR promoter in 293tat cells; test: HIV-LTR directed AP reporter expression in 293tat cells activated by tat and TNF-α; assay type: cell-based; details: Homo sapiens
Protocol: (§1) 293tat cells, a cell line stably transfected with the expression plasmids pHIV.AP and pHIV.tat, were plated onto 96-well microtiter plates at 2000 cells per well. The media were changed the next day and CT2576 was added at the indicated concentrations to the fresh media with or without TNF-α (20 ng/ml). 2 μl of medium from each well was used for AP assay 24 hr later. After culture media were withdrawn for AP assay, cytotoxicity was measured for the same cell cultures using an indicator dye, Alamar Blue™, that would change color in response to the reduction potential of cell medium due to cell growth. The left y-axis refers to the absorbance value of the reduced form of Alamar Blue™ at 570 nm with the background absorbance at 600 nm from the oxidized form of Alamar Blue™ subtracted. Each data point represents the mean of triplicate samples with error bar indicating the standard deviation of the mean.
Stable cell lines 293tar, 293tat and 293tat2 were generated by transfections using conditions described in (Tate et al., FASEB J. 4:227-231, 1990) with the plasmid pHIV.AP alone or along with either pHIV.tat or pSV2tat72, respectively. The assay of HIV-1 p24 antigen expression in the chronically HIV-1-infected promonocytic line U1 after 4 days and in acutely infected peripheral blood lymphocytes (PBL) after 7 days were described (Peterson et al., J. Clin. Invest. 89:574-580, 1992, and Brighty et al., Proc Natl. Acad. Sci. USA 88:7802-7805, 1991).
This example illustrates that CT2576 inhibited TNF-α and tat-activated HIV-LTR promoter directed expression in 293tat cells. Cell activation signals generated by interaction of ligands with receptors are eventually converted to changes in the pattern of gene expression. A reporter gene expression system under the control of the HIV-LTR promoter was set up to investigate compounds that inhibit signaling pathway for HIV activation in infected cells. […]

293tat cells = test: Viability of 293tat cells, Alamar Blue; assay type: cell-based, human
Protocol: as §1
The effect of CT2576 on HIV promoter activity in 293tat cells, with the HIV.AP construct cotransfected with pHIV.tat, is shown in FIG. 15. CT2576 inhibited AP reporter gene expression by 50% with an inhibition constant (IC50) in the range of 10 μM with or without TNF-α induction. The inhibition of AP expression is the result of two events: a decrease in AP expression and a decrease in tat expression and therefore lower tat protein levels for transactivation. […]

[2] = tested on: PA (phosphatidic acid) formation in tat-transfected and tar-transfected cells; test: PA mass / myrPA formation in serum-stimulated EB293, 293tat and 293tar cells; assay type: cell-based, human
Protocol: Transformed and serum-stimulated cells were measured for total PA mass according to the methods described herein. […] The columns in FIG. 18 represent: (1) EB293 cells plus serum, (2) EB293 cells plus serum plus CT3556 (10 μM.), (3) 293tat cells plus serum, (4) 293tat cells plus serum plus CT3556 (10 μM.), (5) 293tar cells plus serum, and (6) 293tar cells plus serum plus CT3556 (10 μM.).
This procedure begins with those cells that would be normally infected with a virus, such as a retrovirus. However, it is not necessary to utilize a cell line containing a retroviral genome, such as U1 cells. In view of the necessity to utilize containment facilities when using an infected cell line, it is preferable to utilize a macrophage cell line that is not infected. Examples of appropriate macrophage cell lines include, U937, THP1, U1, and P288s (available from standard sources, such as ATCC). The cells are stimulated with a stimulant with or without a candidate drug. Examples of stimulants include 3-5% serum, such as fetal calf serum, or tumor necrosis factor (TNF) (e.g., 20 ng/ml) both of which are standard laboratory reagents. After a time course (within 5 minutes, preferably within 1 minute), the cells are immersed in ice cold methanol to stop any cellular signaling reactions.
One must first quantitatively and qualitatively separate PAs from the other lipids found in serum by a chemical extraction of lipids and high performance liquid chromatography (HPLC) to separate and detect PAs. Chemical extraction can be accomplished, for example, by the method of Bligh et al. (Canadian J. Biochem. Physiol. 37:911-917, 1959) or that of Folch et al. (J. Biol. Chem. 226:497-509, 1957). Briefly, the method of Bligh et al. involves an organic extraction of lipids from biological tissue homogenates or fluids. One volume of sample and three volumes of methanol:chloroform (2:1) are vigorously shaken for 2 min. One volume of chloroform is added and then shaken vigorously for 30 sec. One volume of water is added and then shaken vigorously for 30 sec. The mixture is filtered and the upper aqueous layer is discarded. The lower organic layer contains a mixture of lipid classes. The method of Folch et al. involves the extraction of lipids from biological tissue homogenates or body fluids. One volume of sample plus 20 volumes of chloroform:methanol (2:1) are vigorously shaken for 2 min. The mixture is filtered and an amount of 0.1 N KCl equal to 20% of the extraction mixture volume is added and the mixture is shaken vigorously for 2 min. The aqueous and organic phases are allowed to separate. The upper aqueous layer is discarded. The lower organic layer contains a mixture of lipid classes. Free fatty acids and neutral lipids can be separated from phospholipids by normal phase high performance liquid chromatography (HPLC) by modifying the method of Van Kessel et al. (Biochim et Biophys Acta 486:524-530, 1977). This method involves separation of lipids into their major classes by normal phase (silica) high performance liquid chromatography (HPLC). A 5 micron, 25 cm×0.45 cm silica HPLC column is connected to a binary solvent delivery system followed with a UV detector. The lipid sample is injected on the column and a solvent gradient is run at 1.0 ml/min. […]
Transformed and serum-stimulated cells were measured for total PA mass according to the methods described herein. […]

CCCCCCCCNCC(O)CCCCCCCCCn1c(=O)c2c(ncn2C)n(C)c1=O (stereo not shown) [CT2576, 1-(11-octylamino-10-hydroxyundecyl)-3,7-dimethylxanthine]
inhibition at 12 µM ([1]; 24 h, 293tat cells, CT2576 12 μM, after TNF-α or IL-1β induction, read-out: decrease in AP activity after TNF-α or IL-1β induction): 83 to 90% | IC50 ([1]; read-out: IC50, TNF-α induced HIV-LTR directed AP expression, 293tat cells, with TNF-α (20 ng/ml)): ~10 µM | IC50 ([1]; read-out: IC50, tat-dependent HIV-LTR directed AP expression, 293tat cells, tat activation, without TNF-α): ~10 µM | cytotoxic concentration (not cytotoxic at concentrations up to), 293tat cells (293tat cells; Alamar Blue): > 32 µM | cytotoxic effect, 293tat cells (293tat cells; in words): minimal cytotoxic effect | inhibition of myrPA formation in stimulated cells ([2]; 10 μM, tat-transfected cells stimulated with serum): inhibited myrPA formation in stimulated cells | total PA mass, dose response ([2]; EB293 cells with tat expression plasmid, serum, 0 to one minute (FIG. 20)): dose response relationship
